Reference: ChEMBL document CHEMBL1909294, “Translating clinical findings into knowledge in drug safety evaluation--drug induced liver injury prediction system (DILIps)” (PLoS Comput Biol, 2011)

Columns and labels:
Hepatotoxicity [1] = test system: Hepatotoxicity;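 as to HepSE bilirubinemia: bilirubinemia hepatic side effect score drawn from the DILIps training data, a prediction system for drug-induced liver injury; call rule not given here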;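 as to HepSE cholecystitis: Cholecystitis-related hepatic side effect score drawn from the DILIps (drug-induced liver injury prediction) training data set; call rule not given here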;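 as to HepSE cholelithiasis: hepatic side effect score for cholelithiasis, drawn from the DILIps training data for predicting drug-induced liver injury; call rule not given here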;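 as to HepSE cirrhosis: cirrhosis hepatic side effect score taken from the DILIps (drug-induced liver injury prediction) training set; call rule not given here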;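 as to HepSE elevated liver function tests: hepatic side effect score for raised liver function tests, as recorded in the DILIps training set used for predicting drug-induced liver injury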; as to HepSE hepatic failure: call rule not given here;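 as to HepSE hepatomegaly: hepatic side effect score for hepatomegaly, taken from the training set of the DILIps drug-induced liver injury prediction system; call rule not given here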
Hepatotoxicity [2] = test system: Hepatotoxicity; remark: listed apart in the source;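 as to HepSE bilirubinemia: bilirubinemia hepatic side effect score drawn from the DILIps training data, a prediction system for drug-induced liver injury; call rule not given here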;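 as to HepSE cholecystitis: Cholecystitis-related hepatic side effect score drawn from the DILIps (drug-induced liver injury prediction) training data set; call rule not given here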;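 as to HepSE cholelithiasis: hepatic side effect score for cholelithiasis, drawn from the DILIps training data for predicting drug-induced liver injury; call rule not given here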;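 as to HepSE cirrhosis: cirrhosis hepatic side effect score taken from the DILIps (drug-induced liver injury prediction) training set; call rule not given here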;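 as to HepSE elevated liver function tests: hepatic side effect score for raised liver function tests, as recorded in the DILIps training set used for predicting drug-induced liver injury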; as to HepSE hepatic failure: call rule not given here
Hepatotoxicity [3] = test system: Hepatotoxicity; remark: listed apart in the source;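 as to HepSE bilirubinemia: bilirubinemia hepatic side effect score drawn from the DILIps training data, a prediction system for drug-induced liver injury; call rule not given here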;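 as to HepSE cholecystitis: Cholecystitis-related hepatic side effect score drawn from the DILIps (drug-induced liver injury prediction) training data set; call rule not given here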;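 as to HepSE cholelithiasis: hepatic side effect score for cholelithiasis, drawn from the DILIps training data for predicting drug-induced liver injury; call rule not given here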;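 as to HepSE cirrhosis: cirrhosis hepatic side effect score taken from the DILIps (drug-induced liver injury prediction) training set; call rule not given here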;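 as to HepSE elevated liver function tests: hepatic side effect score for raised liver function tests, as recorded in the DILIps training set used for predicting drug-induced liver injury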; as to HepSE hepatic failure: call rule not given here
Hepatotoxicity [4] = test system: Hepatotoxicity; remark: listed apart in the source;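 as to HepSE bilirubinemia: bilirubinemia hepatic side effect score drawn from the DILIps training data, a prediction system for drug-induced liver injury; call rule not given here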;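 as to HepSE cholecystitis: Cholecystitis-related hepatic side effect score drawn from the DILIps (drug-induced liver injury prediction) training data set; call rule not given here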;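 as to HepSE cholelithiasis: hepatic side effect score for cholelithiasis, drawn from the DILIps training data for predicting drug-induced liver injury; call rule not given here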;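 as to HepSE cirrhosis: cirrhosis hepatic side effect score taken from the DILIps (drug-induced liver injury prediction) training set; call rule not given here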;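 as to HepSE elevated liver function tests: hepatic side effect score for raised liver function tests, as recorded in the DILIps training set used for predicting drug-induced liver injury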; as to HepSE hepatic failure: call rule not given here
Hepatotoxicity [5] = test system: Hepatotoxicity; remark: listed apart in the source; as to HepSE hepatic failure: call rule not given here
Hepatotoxicity [6] = test system: Hepatotoxicity; remark: listed apart in the source; as to HepSE hepatic failure: call rule not given here
Hepatotoxicity [7] = test system: Hepatotoxicity; remark: listed apart in the source
Hepatotoxicity [8] = test system: Hepatotoxicity; remark: listed apart in the source
Hepatotoxicity [9] = test system: Hepatotoxicity; remark: listed apart in the source
Hepatotoxicity [10] = test system: Hepatotoxicity; remark: listed apart in the source
Hepatotoxicity [11] = test system: Hepatotoxicity; remark: listed apart in the source
Hepatotoxicity [12] = test system: Hepatotoxicity; remark: listed apart in the source
Hepatotoxicity [13] = test system: Hepatotoxicity; remark: listed apart in the source
Hepatotoxicity [14] = test system: Hepatotoxicity; remark: listed apart in the source

Compound	HepSE_bilirubinemia (Hepatotoxicity [1])	HepSE_cholecystitis (Hepatotoxicity [2])	HepSE_cholelithiasis (Hepatotoxicity [3])	HepSE_cirrhosis (Hepatotoxicity [4])	HepSE_elevated liver function tests (Hepatotoxicity [5])	HepSE_hepatic failure (Hepatotoxicity [6])	HepSE_hepatic necrosis (Hepatotoxicity [7])	HepSE_hepatitis (Hepatotoxicity [8])	HepSE_hepatomegaly (Hepatotoxicity [9])	HepSE_jaundice (Hepatotoxicity [10])	HepSE_liver disease (Hepatotoxicity [11])	HepSE_liver fatty (Hepatotoxicity [12])	HepSE_liver function tests abnormal (Hepatotoxicity [13])	HepSE_Combined Scores (Hepatotoxicity [14])	further results
CC1COc2c(N3CCN(C)CC3)c(F)cc3c(=O)c(C(=O)O)cn1c23 (configuration not stated) [OFLOXACIN]	0	1	1	0	0	1	1	1	0	1	0	0	0	6	
O=C(OOC(=O)c1ccccc1)c1ccccc1 [BENZOYL PEROXIDE]	0	0	0	0	0	0	0	0	0	0	0	0	0	0	
CC(C)(C)NC(=O)[C@@H]1C[C@@H]2CCCC[C@@H]2CN1C[C@@H](O)[C@H](Cc1ccccc1)NC(=O)[C@H](CC(N)=O)NC(=O)c1ccc2ccccc2n1															HepSE_bilirubinemia (Hepatotoxicity [1]; Liver): 1; HepSE_cholecystitis (Hepatotoxicity [2]; Liver): 0; HepSE_cholelithiasis (Hepatotoxicity [3]; Liver): 1; HepSE_cirrhosis (Hepatotoxicity [4]; Liver): 0; HepSE_elevated liver function tests (Hepatotoxicity [5]; Liver): 1; HepSE_hepatic failure (Hepatotoxicity [6]; Liver): 0; HepSE_hepatic necrosis (Hepatotoxicity [7]; Liver): 0; HepSE_hepatitis (Hepatotoxicity [8]; Liver): 1; HepSE_hepatomegaly (Hepatotoxicity [9]; Liver): 1; HepSE_jaundice (Hepatotoxicity [10]; Liver): 1; HepSE_liver disease (Hepatotoxicity [11]; Liver): 1; HepSE_liver fatty (Hepatotoxicity [12]; Liver): 0; HepSE_liver function tests abnormal (Hepatotoxicity [13]; Liver): 0; HepSE_Combined Scores (Hepatotoxicity [14]; Liver): 7
CC(C)N1CCN(c2ccc(OCC3COC(Cn4cncn4)(c4ccc(Cl)cc4Cl)O3)cc2)CC1 (configuration not stated) [TERCONAZOLE]	0	0	0	0	0	0	0	0	0	0	0	0	0	0	
CN1CCc2cccc3c2[C@H]1Cc1ccc(O)c(O)c1-3 [APOMORPHINE]	0	0	0	0	0	0	0	0	0	0	0	0	0	0	
CCOC(=O)[C@H](CCc1ccccc1)N[C@@H](C)C(=O)N1CCC[C@H]1C(=O)O	0	0	0	0	0	1	0	1	0	1	0	0	0	3	
CN(C)[C@@H]1C(O)=C(C(N)=O)C(=O)[C@@]2(O)C(O)=C3C(=O)c4c(O)ccc(Cl)c4[C@@H](O)[C@H]3C[C@@H]12 [DEMECLOCYCLINE]	0	0	0	0	0	1	0	1	0	0	0	0	0	2	
CC(C)[C@@H]1NC(=O)[C@H](CCCCN)NC(=O)[C@@H](Cc2c[nH]c3ccccc23)NC(=O)[C@H](Cc2ccc(O)cc2)NC(=O)[C@@H](NC(=O)[C@H](N)Cc2ccc3ccccc3c2)CSSC[C@@H](C(=O)N[C@H](C(N)=O)[C@@H](C)O)NC1=O [LANREOTIDE]	1	1	1	0	0	0	0	0	1	0	0	0	0	4	
Nc1c2c(nc3ccccc13)CCCC2 [TACRINE]															HepSE_bilirubinemia (Hepatotoxicity [1]; Liver): 0; HepSE_cholecystitis (Hepatotoxicity [2]; Liver): 1; HepSE_cholelithiasis (Hepatotoxicity [3]; Liver): 1; HepSE_cirrhosis (Hepatotoxicity [4]; Liver): 0; HepSE_elevated liver function tests (Hepatotoxicity [5]; Liver): 0; HepSE_hepatic failure (Hepatotoxicity [6]; Liver): 0; HepSE_hepatic necrosis (Hepatotoxicity [7]; Liver): 0; HepSE_hepatitis (Hepatotoxicity [8]; Liver): 0; HepSE_hepatomegaly (Hepatotoxicity [9]; Liver): 0; HepSE_jaundice (Hepatotoxicity [10]; Liver): 0; HepSE_liver disease (Hepatotoxicity [11]; Liver): 0; HepSE_liver fatty (Hepatotoxicity [12]; Liver): 0; HepSE_liver function tests abnormal (Hepatotoxicity [13]; Liver): 0; HepSE_Combined Scores (Hepatotoxicity [14]; Liver): 2
O=C1OC2(c3ccc(O)cc3Oc3cc(O)ccc32)c2ccccc21 [FLUORESCEIN]	0	0	0	0	0	0	0	0	0	0	0	0	0	0	
CC#C[C@]1(O)CC[C@H]2[C@@H]3CCC4=CC(=O)CCC4=C3[C@@H](c3ccc(N(C)C)cc3)C[C@@]21C [MIFEPRISTONE]	0	0	0	0	0	0	0	0	0	0	0	0	0	0	
CN(C)CCC=C1c2ccccc2COc2ccccc21 [DOXEPIN]	0	0	0	0	0	0	0	0	0	1	0	0	0	1	
O=c1n(CCCN2CCN(c3cccc(Cl)c3)CC2)nc2ccccn12 [TRAZODONE]	1	0	0	0	0	0	0	0	0	1	0	0	0	2	
